# What was measured:
# guinea pig uterus = experiment: Oxytocic activity on isolated guinea pig uterus (height of contraction compared with standard oxytocin or PGF2α); type: cell-based; details: at the concentration of 200 µg/ml
# [1] = radiolabelled, injected into human volunteers, within 5 hours; cited from earlier work
Structure (SMILES),potency compared with the standards (in words) (guinea pig uterus),radioactivity excreted in the urine [1]
CC(C)(O)CC[C@@H](O)[C@](C)(O)[C@H]1CC[C@@]2(O)C3=CC(=O)[C@@H]4C[C@@H](O)CC[C@]4(C)[C@H]3CC[C@]12C [2-deoxy ecdysterone],more potent than the standard oxytocin and PGF2α,–
CCCCC[C@H](O)/C=C/[C@@H]1[C@@H](C/C=C\CCCC(=O)O)[C@@H](O)C[C@H]1O [PGF2α],–,around 90%
CCCCC[C@H](O)/C=C/[C@H]1[C@H](O)CC(=O)[C@@H]1C/C=C\CCCC(=O)O [PGE2],–,about 50%
